Test results: patent US6787342B2, “Paste formulations” (Merial Limited, priority 2000, dated 2004)

Assays:
[1] = system: Cooperia onocophora and Nematodirus; conditions: against Cooperia onocophora and Nematodirus; cited from earlier work
[2] = Carr Index (compressibility/flowability) of unmilled polymorphic forms; format: physicochemical
From the text: After crystallization and before micronization, the Carr Index of B form is lower than 10 (in %). The Can Index CI is defined as [formula] where P is the packed bulk density (g cm^−3), L is the loose bulk density (g cm 3). CI is also known as a compressibility index. A low figure for Cl corresponds to a high degree of flowability. The Carr Index way be calculated from Mercury Intrusion Porosimetry or measured by Tap-Tap.

[3] = Thermodynamic stability of polymorphic forms (DSC, Burger's rule); format: physicochemical; conditions: monotropic system
From the text: When heated, form A transforms to form B depending on the heating rate.
Therefore, the transition A→B is under kinetic control as usual in case of polymorphism. The transition from A to B may also be followed by XRay under heating (FIG. 12).

Carr Index ([2]; after crystallization and before micronization) | thermodynamic stability of polymorphic form ([3]; listed as B form) | Molecule | ivermectin plasma level required for efficacy [1] [ng/mL] | flow characteristics ([2]; compared with Polymorph A) | thermodynamic stability of polymorphic form [3]
 |  | 22,23-dihydro avermectin Bla/Blb [ivermectin] | 3 to 4 |  | 
lower than 10% | the most stable form | CC1(C)OC(=O)C(OCC2CC2)=C1c1ccc(S(C)(=O)=O)cc1 [Polymorph B, 3-(cyclopropylmethoxy)-4-[4-(methylsulfonyl)phenyl]-5,5-dimethyl-5H-furan-2-one] |  | better flow characteristics than Polymorph A | thermodynamically more stable than Polymorph A
